Three molecules from US20110152313A1 (MACQUARIE UNIVERSITY, priority 2008, published 2011) can be followed below.

Converted amounts (≈) assume the structure as drawn.

One test has as its target T1, PRKCE (Homo sapiens, UniProt Q02156).
T1 sequence (Q02156 1-737): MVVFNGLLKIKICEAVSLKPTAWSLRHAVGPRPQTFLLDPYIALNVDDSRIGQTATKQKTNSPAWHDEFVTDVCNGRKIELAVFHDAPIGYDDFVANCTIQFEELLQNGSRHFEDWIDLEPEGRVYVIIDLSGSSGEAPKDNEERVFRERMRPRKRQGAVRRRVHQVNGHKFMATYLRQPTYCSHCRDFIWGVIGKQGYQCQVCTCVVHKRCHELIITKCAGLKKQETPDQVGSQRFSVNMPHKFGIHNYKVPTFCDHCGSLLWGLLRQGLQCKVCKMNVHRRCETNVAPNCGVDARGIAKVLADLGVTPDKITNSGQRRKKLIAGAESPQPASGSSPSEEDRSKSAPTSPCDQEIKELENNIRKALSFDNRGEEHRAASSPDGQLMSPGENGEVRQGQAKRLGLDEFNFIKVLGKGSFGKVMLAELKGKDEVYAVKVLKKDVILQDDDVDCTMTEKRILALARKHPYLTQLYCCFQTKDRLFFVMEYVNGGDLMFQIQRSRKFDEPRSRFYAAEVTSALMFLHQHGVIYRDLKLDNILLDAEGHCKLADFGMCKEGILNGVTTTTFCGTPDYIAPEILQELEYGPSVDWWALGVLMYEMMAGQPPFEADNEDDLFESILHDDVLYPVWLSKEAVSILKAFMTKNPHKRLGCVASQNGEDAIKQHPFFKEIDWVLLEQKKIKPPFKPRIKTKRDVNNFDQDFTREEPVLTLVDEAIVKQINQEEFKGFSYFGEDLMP
Briefly: kinase binding constant, 11-point dose response (T7 phage, qPCR). The following applies: >30 = no inhibition at highest concentration tested. The protocol: (§1) Kinase inhibition studies were performed by methods well known in the prior art (Fabian, M. A. et al. Nat. Biotechnol. 2005, 23, 329). Briefly, kinase-tagged T7 phage strains were prepared in an E. coli host derived from the BL21 strain. E. coli were grown to log-phase and infected with T7 phage and incubated with shaking at 32° C. until lysis. The lysates were centrifuged and filtered to remove cell debris. […] The liganded beads were blocked with excess biotin and washed with blocking buffer (SeaBlock (Pierce); 1% BSA, 0.05% Tween 20, 1 mM DTT) to remove unbound ligand and to reduce non-specific binding. […] All reactions were performed in polystyrene 96-well plates in a final volume of 0.135 ml. […] The kinase concentration in the eluates was measured by qPCR.
(§2) An 11-point 3-fold serial dilution of each test compound (from 30 μM to 0.5 nM) was prepared in 100% DMSO at 100× final test concentration and subsequently diluted to 1× in the assay (final DMSO concentration=1%). Binding constants (KDS) were calculated with a standard dose-response curve using a 5-point sigmoidal (Hill) equation.

A further test addresses CLK2 (Homo sapiens, UniProt P49760). The description is as above. The following applies: >30 = no inhibition at highest concentration tested. The protocol: as §1, §2
The next test addresses YANK2 (Homo sapiens, UniProt Q9NY57). Described as above. The conditions noted are these: >30 = no inhibition at highest concentration tested. On the procedure:
as §1, §2

The target in another test is T2, CDK5/p25 (Homo sapiens, UniProt Q00535).
T2 construct: made in house
T2 sequence (Q00535 whole entry): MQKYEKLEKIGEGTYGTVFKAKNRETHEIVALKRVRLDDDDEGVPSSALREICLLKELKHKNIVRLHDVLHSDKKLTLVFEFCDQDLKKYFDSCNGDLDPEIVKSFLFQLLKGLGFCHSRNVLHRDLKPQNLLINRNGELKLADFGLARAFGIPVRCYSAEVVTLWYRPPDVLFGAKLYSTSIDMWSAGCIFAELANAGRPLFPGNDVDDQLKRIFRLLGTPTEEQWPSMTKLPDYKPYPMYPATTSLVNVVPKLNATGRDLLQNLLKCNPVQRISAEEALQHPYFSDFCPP
T2 sequence (Q15078 99-307 partner limits assumed): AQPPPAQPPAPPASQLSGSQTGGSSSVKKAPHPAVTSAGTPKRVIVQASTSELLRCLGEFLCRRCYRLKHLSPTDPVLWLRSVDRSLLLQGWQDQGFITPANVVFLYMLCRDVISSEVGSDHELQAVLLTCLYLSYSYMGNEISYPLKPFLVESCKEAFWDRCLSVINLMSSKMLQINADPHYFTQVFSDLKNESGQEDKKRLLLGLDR
The test is described as follows: protein kinase activity assay ([γ-32P] ATP, histone H1). The class given is biochemical. The following applies: 15 μM ATP, 30° C.; tested up to 100 μM; read-out: IC50 CDK5/p25. On the procedure:
Buffer A: 10 mM MgCl2, 1 mM EGTA, 1 mM DTT, 25 mM Tris-HCl pH 7.5, 50 μg heparin/mL. Buffer C: 60 mM β-glycerophosphate, 15 mM p-nitrophenylphosphate, 25 mM Mops (pH 7.2), 5 mM EGTA, 15 mM MgCl2, 1 mM DTT, 1 mM sodium vanadate, 1 mM phenyl phosphate.
Anticancer activity is commonly associated with the inhibition of kinase enzymes. […] Blank values are subtracted and activities expressed as percent of the maximal activity, i.e. in the absence of inhibitors (Table 4). Controls were performed with appropriate dilutions of DMSO, which was used to dissolve all test compounds.
CDK1/cyclin B (native M phase starfish oocytes), and CDK5/p25 (recombinant human) can be prepared according to the prior art (Meijer, L.; Thunnissen, A. M. W. H.; White, A. W.; Gamier, M.; Nikolic, M., et al. Chem. Biol. 2000, 7, 51-63). […] ATP (3,000 Ci/mmol, 10 mCi/mL) in a final volume of 30 μL. After 30 min. incubation at 30° C., 25 μL aliquots of supernatant are spotted onto 2.5×3 cm pieces of Whatman P81 phosphocellulose paper and, 20 s later, the filters are washed five times (for at least 5 min. each time) in a solution of 10 mL phosphoric acid/L of water. The wet filters are then counted in the presence of 1 mL ACS (Amersham) scintillation fluid.

Test [1] has as its system new blood vessel growth from isolated rat aorta fragments. The test is described as follows: rat aorta fragment vessel outgrowth (anti-angiogenic) assay in fibrin gel. The test is classed as cell-based. The following applies: 120 h, read-out: Anti-Angiogenesis Activity IC50 (concentration that inhibits 50% of the new blood vessel growth); rat aorta fragments, day 5; >100 = no inhibition under the assay conditions. The protocol:
A potentially non-toxic method of treating cancer is to inhibit angiogenesis. The human anti-angiogenic and therefore antiproliferative action of drugs can be assessed by many methods well known in the prior art. […] Briefly, thoracic aortas were excized from 3-9 month-old female Fischer rats, cross-sectioned at 1 mm intervals and embedded individually in 0.5 ml of a fibrin gel containing 5 μg/ml of aprotinin (to prevent fibrinolysis) in each well of a 48-well culture plate. Immediately after vessel embedding, 0.5 ml/well of medium M199, supplemented with 20% foetal calf serum, 0.1% E-aminocaproic acid, 1% L-glutamine and antibiotics, was added. Each test compound (10 mg/ml, dissolved in DMSO) was added to the medium (maximum final concentration of test compound 100 μg/ml) and each treatment was performed in six wells. Control cultures received medium containing 0.1% DMSO but without any test compound. […] Vessels were cultured at 37° C. in 5% CO2 in air for 5 days and the medium, with or without test compound, was changed on day 4. Vessel growth was quantified manually under 40× magnification on day 5, with growth being estimated as the percentage of the field (×40) around the vessel fragment that was occupied by vessel outgrowths. By counting the number of vessels formed after 5 days at three to six different concentrations (in triplicate) it is possible to determine an IC50 values for each compound compared to a positive and negative (solvent) control. The percentage inhibition (0-100%) is plotted against compound concentration and a 3-parameter sigmoidal (dose-response) curve fitted (Graphpad Prism v 4) by non-linear regression.

Chain of YANK2 (Q9NY57 whole entry): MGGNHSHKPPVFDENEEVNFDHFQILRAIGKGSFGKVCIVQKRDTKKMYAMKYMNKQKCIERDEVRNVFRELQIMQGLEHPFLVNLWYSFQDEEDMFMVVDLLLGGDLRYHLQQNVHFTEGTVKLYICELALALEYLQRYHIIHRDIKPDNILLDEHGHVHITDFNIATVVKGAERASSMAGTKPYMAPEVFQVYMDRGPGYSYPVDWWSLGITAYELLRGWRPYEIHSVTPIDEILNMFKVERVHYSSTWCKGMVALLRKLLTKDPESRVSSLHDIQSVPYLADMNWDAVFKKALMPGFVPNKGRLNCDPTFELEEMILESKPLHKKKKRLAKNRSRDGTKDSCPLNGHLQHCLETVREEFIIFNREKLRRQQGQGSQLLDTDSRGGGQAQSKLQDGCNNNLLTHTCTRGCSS
Chain of CLK2 (P49760 whole entry): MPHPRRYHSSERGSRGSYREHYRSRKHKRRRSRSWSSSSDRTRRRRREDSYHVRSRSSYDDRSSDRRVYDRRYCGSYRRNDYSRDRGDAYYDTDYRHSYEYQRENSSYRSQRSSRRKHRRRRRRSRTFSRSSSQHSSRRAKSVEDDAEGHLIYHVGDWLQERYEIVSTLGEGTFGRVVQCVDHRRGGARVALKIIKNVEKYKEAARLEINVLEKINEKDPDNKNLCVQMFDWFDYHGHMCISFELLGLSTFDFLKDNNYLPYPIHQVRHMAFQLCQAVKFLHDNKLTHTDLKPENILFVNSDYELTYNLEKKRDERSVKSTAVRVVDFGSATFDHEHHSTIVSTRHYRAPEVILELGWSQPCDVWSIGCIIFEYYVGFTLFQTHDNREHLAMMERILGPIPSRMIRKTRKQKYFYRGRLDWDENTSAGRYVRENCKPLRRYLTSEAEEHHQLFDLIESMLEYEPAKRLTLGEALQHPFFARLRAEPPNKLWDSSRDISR

`Nc1nc2c(-c3ccccn3)nccc2[nH]1` [drawing 35, 4-(pyrid-2-yl)-1H-imidazo[4,5-c]pyridin-2-amine] had a Kd on PRKCE of more than 30 µM.

In the case of `Nc1nc2c(-c3cnc4ccccc4c3)nccc2[nH]1` [drawing 36, 4-(quinolin-3-yl)-1H-imidazo[4,5-c]pyridin-2-amine], the dissociation constant Kd at CLK2 was 1.2 µM; on YANK2, more than 30 µM.

For the molecule `Nc1nc2c(-c3cc(Br)c(Br)[nH]3)nccc2[nH]1` [Ageladine A, ageladine A, reference compound], the IC50 was more than 100 µM at CDK5/p25 and 25 mg/L (≈ 70 µM) in test [1].

One may read the Kd as a measure of binding affinity in units of concentration.
